The results in this text go back to patent US10214746B2, “Soybean transformation method” (Dow AgroSciences LLC, priority 2013, dated 2019).

The test system of assay [1] is transgenic soybean shoots. The assay can be described thus: Root development and yellow fluorescence protein expression of pDAB9381-transformed soybean shoots on rooting medium with glufosinate. The class given is in vivo, Glycine max. The protocol:
The transformed soybean seeds were cultivated using the tissue culture protocol as described in U.S. Filing No. 61/739,349, herein incorporated by reference. Co-cultivation of the soybean plant seeds with an Agrobacterium strain containing the pDAB9381 plasmid was carried out for 5 days on co-cultivation medium covered with a filter paper. After 5 days of incubation on the co-cultivation medium, the explants were washed in liquid Shoot Induction (SI) medium for about 5 to 10 minutes. The explants were then cultured onto Shoot Induction-I (SI-I) medium. The soybean seeds were oriented so the flat side of the soybean seed faced up and the nodal end of the soybean cotyledon was imbedded into the SI-I medium. After 2 weeks of culture at 24° C. with an 18 hour photoperiod, the explants were transferred to the Shoot Induction-II (SI-II) medium supplemented with 6 mg/L glufosinate. After 2 weeks on SI-II medium, the cotyledons were removed from the explants, a flush shoot pad was excised by making a cut at the base of the cotyledon, and the isolated shoot was transferred to the Shoot Elongation (SE) medium. The cultures were transferred to fresh SE medium every two weeks. PETRI™ dishes were not wrapped with filter paper throughout the shoot induction and shoot elongation stages. Lighting sources were provided with an illumination of 80-90 μmoles s-1m-2 for the transformed tissues during shoot induction and shoot elongation.
The elongated shoots were dipped in 1 mg/L indole 3-butyric acid (IBA) for about 1 to 3 minutes to promote rooting prior to transferring of the isolated shoots to rooting medium (MS salts, B5 vitamins, 28 mg/L ferrous, 38 mg/L Na^2EDTA, 20 g/L sucrose and 0.59 g/L MES, 50 mg/L asparagine, 100 mg/L L-pyroglutamic acid, and 7 g/L NOBLE™ agar, pH 5.6) in phyta trays. A selection agent of glufosinate at a concentration of 1 mg/L was incorporated into the rooting medium for a subset of the transformation experiments.
Following culturing in the rooting medium at 24° C., with an 18 hour photoperiod, for 1-2 weeks, the soybean shoots that produced healthy, viable roots were transferred to soil. The soybean shoots comprising healthy, viable roots were placed in soil which was contained in an open plastic sundae cup. The plastic sundae cups containing the transferred soybean shoots comprising roots were placed in a CONVIRON™ for acclimatization of soybean plantlets. The rooted soybean plantlets were acclimated in the open sundae cups for several weeks before the plantlets were transferred to the greenhouse.
Incorporation of a section agent comprising glufosinate in soybean tissue culture rooting medium was tested to reduce the formation of non-germline, chimeric soybean transformation events and escapes. Following Agrobacterium-mediated transformation of soybean (cv. Maverick) with the binary vector, pDAB9381, soybean shoots were regenerated and cultured onto rooting medium that contained a selection agent comprising glufosinate. After root development was initiated on the rooting media comprising glufosinate, the roots were tested for transgene expression (yellow fluorescence protein).
A total of 531 transgenic soybean shoots were produced using the transformation method described above and transferred onto rooting medium containing the selection agent glufosinate. […] (see Table 2). A correlation was observed between yellow fluorescence protein transgene expression and viable, white root formation, wherein a significant majority of the viable, white roots expressed the yellow fluorescence protein transgene in root tissues. (see FIG. 2, FIG. 3, and FIG. 5). Microscopy results confirmed that about 92% of the soybean plants produced from rooting medium comprising a selection agent were transgenic as these soybean plants expressed the yellow fluorescence protein transgene. (see FIG. 2, FIG. 3, and FIG. 5).

In assay [2] the test system is non-transgenic soybean shoots. The experiment in a line: Growth response (rooting) of non-transgenic soybean shoots on rooting medium with glufosinate. The assay is classed as in vivo. As for the experimental part: Growth response studies to varying concentrations of selection agent were conducted using non-transgenic soybean shoots. In this example, glufosinate was used as the exemplary selection agent. Soybean shoots were regenerated from split-seed soybean tissues and cultivated on Shoot Induction medium until shoots had developed and were ready for transfer to rooting medium. Several different concentrations of glufosinate (0, 0.25 mg/L, 0.50 mg/L, 1 mg/L, 2 mg/L, 3 mg/L, 4 mg/L, 5 mg/L, and 6 mg/L) were incorporated into rooting medium (MS salts, B5 vitamins, 28 mg/L ferrous, 38 mg/L Na^2EDTA, 20 g/L sucrose and 0.59 g/L MES, 50 mg/L asparagine, 100 mg/L L-pyroglutamic acid, and 7 g/L NOBLE™ agar, pH 5.6) to determine which concentrations of glufosinate inhibited root development. […] However, 90% and 50% of the soybean shoots cultivated in rooting medium containing glufosinate at concentrations of 0.25 mg/L and 0.5 mg/L, respectively, produced roots. (see Table 1). The effective glufosinate concentration for inhibition of soybean shoot growth and development was determined to be at least 1.0 mg/L of glufosinate. Higher concentrations of glufosinate (e.g., concentrations greater than 1.0 mg/L) were effective in inhibiting root development.

The test system of assay [3] is transgenic soybean events. The experiment in a line: Heritability analysis of transgenic soybean events produced on rooting medium comprising glufosinate (T1 plants sprayed with glufosinate). The assay is classed as in vivo. An excerpt:
A total of 153 transgenic soybean events were isolated and grown to maturity. These soybean events were self-fertilized to produce seed that was obtained and analyzed for heritability. All of the 153 transgenic soybean events were confirmed to contain the yellow fluorescent protein and phosphinothricin acetyltransferase transgenes via molecular analysis in the parental T0 soybean plants. For each of the 153 transgenic soybean events, 15 seeds were obtained and germinated in soil under conventional green house conditions. The transgenic soybean plants were grown to the V1 stage of development and were sprayed with 411 g ae/ha glufosinate, which was used as the exemplary selection agent in this example. After treatment with glufosinate, the soybean plants were observed and graded as resistant or susceptible to glufosinate. The transgenic soybean events that produced at least one T1 seedling were determined to be a heritable event.

The next assay concerns soybean shoots. The experiment in a line: Rooting medium selection of aad-12 transformed soybean shoots with 2,4-D. The class given is in vivo, soybean (cv. Maverick). The settings on record: aad-12 transgene; rooting medium with 2,4-D about 2 to 120 mg/L. As for the experimental part: Transformed soybean seed can be cultivated using a modified tissue culture protocol as described in U.S. Filing No. 61/739,349, herein incorporated by reference, wherein the selective agent is 2,4-D. Co-cultivation of the soybean plant seeds with Agrobacterium, can be carried out for 5 days on co-cultivation medium covered with a filter paper. After 5 days of incubation on the co-cultivation medium, the explants can be washed in liquid Shoot Induction (SI) medium for about 5 to 10 minutes. The explants can then be cultured onto Shoot Induction-I (SI-I) medium. The soybean seeds are oriented so the flat side of the soybean seed face up and the nodal end of the soybean cotyledon is imbedded into the SI-I medium. After 2 weeks of culture at 24° C. with an 18 hour photoperiod, the explants can be transferred to the Shoot Induction-II (SI-II) medium supplemented with 2 to 120 mg/L 2,4-D. After 2 weeks on SI-II medium, the cotyledons can be removed from the explants, wherein a flush shoot pad is excised by making a cut at the base of the cotyledon, and the isolated shoot is transferred to the Shoot Elongation (SE) medium. The cultures can be transferred to fresh SE medium every two weeks. PETRI™ dishes may not be wrapped with filter paper throughout the shoot induction and shoot elongation stages. […]

Where [4] appears, read: glufosinate 1 mg/L in rooting medium, 531 plants.
Setting [5] is: root tissues, glufosinate 1 mg/L in rooting medium, 531 plants.
Setting [6] is: rooting medium comprising glufosinate (1 mg/L).
[7] abbreviates: Brown/Black Roots on glufosinate rooting medium, 76 events.
[8] abbreviates: Total, 153 T1 events, T1 sprayed with 411 g ae/ha glufosinate.
Where [9] appears, read: White Roots on glufosinate rooting medium, 77 events.
Setting [10] is: glufosinate at least 1 mg/L in rooting medium.

“Also recorded” adds a separate entry of the source.

`CP(=O)(O)CCC(N)C(=O)O` (racemic) [glufosinate, DL-phosphinothricin]: in assay [1] (setting [4]), the “Number of Plants with Unhealthy, Brown/Black Roots” value amounted to 212. Also, the “Number of Plants with Viable, White Roots” value in assay [1] (setting [4]) was 319. Also, the “Plants with Unhealthy, Brown/Black Roots (%)” value in assay [1] (setting [4]) is 40%. Also, in assay [1] (setting [4]), the “Plants with Viable, White Roots (%)” value is listed as 60%. Also, the “soybean plants produced from rooting medium comprising a selection agent that were transgenic (expressed the yellow fluorescence protein transgene)” value in assay [1] (microscopy, shoots with viable, white roots) is recorded as “about 92%”. The “Number of Plants with YFP Expression” value in assay [1] (setting [5]) was 271. For the same molecule, the “Number of Plants with no YFP Expression” value in assay [1] (setting [5]) was 260. In addition, in assay [1] (setting [5]), the “Plants with YFP Expression (%)” value is on record as 51%. Moreover, the “Plants with no YFP Expression (%)” value in assay [1] (setting [5]) worked out at 49%. For the same molecule, in assay [1] (setting [6]), the “root phenotype of germline transformants” value is recorded as “produce healthy, viable roots; also recorded: healthy viable roots were produced”. For the same molecule, the “root phenotype of non-germline or chimeric transformants” value in assay [1] (setting [6]) was “either do not form roots or develop brown/black roots; also recorded: do not produce viable roots; also recorded: (1) no roots were produced; (2) roots were produced and turned brown; and, (3) roots were produced and turned black”. In addition, the “Percentage of Shoots that Produced Roots” value in assay [2] (glufosinate 0.25 mg/L in rooting medium) is given as 90%; in assay [2] (glufosinate 0.5 mg/L in rooting medium), 50%; in assay [2] (glufosinate 1.0 mg/L in rooting medium) it was 0%; in assay [2] (glufosinate 2.0 mg/L in rooting medium) it was 0%; in assay [2] (glufosinate 3.0 mg/L in rooting medium) it was 0%; in assay [2] (glufosinate 4.0 mg/L in rooting medium) it was 0%. Further, the “Percentage of Shoots that Produced Roots” value in assay [2] (glufosinate 5.0 mg/L in rooting medium) and in assay [2] (glufosinate 6.0 mg/L in rooting medium) was 0% in each case. Also, the “Number of Shoots Producing Roots” value in assay [2] (glufosinate 0.25 mg/L, 10 shoots cultivated) was 9; in assay [2] (glufosinate 0.5 mg/L, 10 shoots cultivated) it was 5; in assay [2] (glufosinate 1.0 mg/L, 30 shoots cultivated), 0; in assay [2] (glufosinate 2.0 mg/L, 30 shoots cultivated) it was 0; in assay [2] (glufosinate 3.0 mg/L, 30 shoots cultivated) it was 0; in assay [2] (glufosinate 4.0 mg/L, 25 shoots cultivated), 0. Further, the “Number of Shoots Producing Roots” value was 0 in assay [2] (glufosinate 5.0 mg/L, 25 shoots cultivated) and 0 in assay [2] (glufosinate 6.0 mg/L, 25 shoots cultivated). Moreover, in assay [2] (rooting media supplemented with 1 to 6 mg/L glufosinate), the “root formation of soybean shoots” value is given as “no root formation was observed”. Further, the “effective glufosinate concentration for inhibition of soybean shoot growth and development” value in assay [2] (rooting medium, non-transgenic shoots) was “at least 1.0 mg/L”. Also, the figures for the “Percentage of heritable events” value in assay [3] (setting [7]), in assay [3] (setting [8]) and in assay [3] (setting [9]) were 7%, 48% and 90%, respectively. For the same molecule, the “Percentage of non-heritable events” value in assay [3] (setting [7]) is 93%; in assay [3] (setting [8]) it was 52%; in assay [3] (setting [9]), 10%. In addition, the “advanced events with viable, healthy roots confirmed to be germline soybean transformants” value in assay [3] (setting [10]) was “about 90%”. Moreover, the “non-germline (chimeric) events eliminated based on root phenotype (brown/black roots or no root development)” value in assay [3] (setting [10]) was “about 93%”.

For `O=C(O)COc1ccc(Cl)cc1Cl` [2,4-D, 2,4-dichlorophenoxyacetic acid], in the assay with soybean shoots, the “transgene expression in viable, white roots” value was “a significant majority of the viable, white roots express the transgene in root tissues”.
